Reference: publication PMC9823097, “Dysregulation of PRMT5 in chronic lymphocytic leukemia promotes progression with high risk of Richter’s transformation” (Nature Communications, 2023)
Values joined by “and” are separate entries in the source; they are usually repeats but may differ in a detail not shown here. Equal values may be shown once. “Also recorded” adds a separate entry of the source.

What was measured:
[1] = test system: HG3 CLL cell line; test: Global symmetric dimethyl arginine (SDMA) western blot, HG3; assay type: cell-based; settings: HG3, EPZ015666 for 72hr
Source text: Proteins extracted from whole-cell lysates were resolved by SDS-PAGE and transferred on nitrocellulose membrane as previously described. CpG685 oligonucleotide was obtained from the OSU Cytogenetics Core Lab. Antibodies used for immunoblots included anti-human PRMT5 (Abcam #ab109451), GAPDH (Millipore Sigma #MAB374), SDMA (Cell Signaling Technology #13222), c-Myc (Cell Signaling Technology #5605S), and β-Actin (Cell Signaling Technology #4967S). Cas9-mediated doxycycline-inducible knockout of PRMT5 utilized a targeted sgRNA (guide sequence: […], PAM: GGG).

[2] = test system: Mec-1 cells; test: Cell growth curves over 12 days, Mec-1; assay type: cell-based
Method: Live cells/mL were counted on days 3, 6, 10, and 12. […] The split factor was calculated at indicated time points by dividing the counted cells/mL by 3E5. Cell growth was extrapolated over time by multiplying the subsequent cell count by the previous split factor. Cell growth is plotted as fold change relative to DMSO-treated cells.

[3] = test system: Eµ-PRMT5/TCL1 Cd19+Cd5+ spleen cells engrafted into immunocompetent C57/BL6J mice; test: Adoptive transfer of Eµ-PRMT5/TCL1 spleen cells into C57/BL6J mice, treatment study; assay type: in vivo
Method: For adoptive transfer, viable Cd19^+Cd5^+ cells (5 × 10^6) from the spleen of an Eµ-PRMT5/TCL1 transgenic mouse with active CLL-like leukemia (>80% circulating in peripheral blood) and palpable splenomegaly were engrafted by tail vein into immunocompetent C57/BL6J female mice. Engrafted mice were randomly assigned to treatment conditions: PRT382 10 mg/kg, EPZ015666 50 mg/kg, or vehicle (0.5% methylcellulose, 0.1% tween) at 1-week post engraftment. All treatments were administered by oral gavage 4 contiguous days per week (Mon-Thurs). Predefined euthanasia criteria for mice in all transgenic colonies and murine transplant models were followed and included lethargy, impaired motility, splenomegaly, enlarged lymph nodes and/or superficial lymphoid tumors greater than 1.6 cm in diameter (or cumulative diameter of 1.6 cm if multiple tumors), decrease in body weight (>20%), ruffled fur, hunched back, failure to nest, and loss of appetite.

With O=C(NC[C@H](O)CN1CCc2ccccc2C1)c1cc(NC2COC2)ncn1 [EPZ015666] the “global symmetric dimethyl arginine residues (immunoblot)” value [1] was “dose dependent global loss; also recorded: only a modest decrease”, the “Rep 1 Live Cells [Fold Change]” value ([2]; Mec-1, 1 nM, day 0) was 1 Fold Change and the “Rep 2 Live Cells [Fold Change]” value ([2]; Mec-1, 1 nM, day 0) was 1 Fold Change. For the same molecule, the “Rep 1 Live Cells [Fold Change]” value ([2]; Mec-1, 1 nM, day 3) was 8.617 Fold Change, the “Rep 2 Live Cells [Fold Change]” value ([2]; Mec-1, 1 nM, day 3) was 9.35 Fold Change and the “Rep 1 Live Cells [Fold Change]” value ([2]; Mec-1, 1 nM, day 6) was 72.0928 Fold Change. For the same molecule, the “Rep 2 Live Cells [Fold Change]” value ([2]; Mec-1, 1 nM, day 6) was 74.5 Fold Change, the “Rep 1 Live Cells [Fold Change]” value ([2]; Mec-1, 1 nM, day 10) was 633.719 Fold Change and the “Rep 2 Live Cells [Fold Change]” value ([2]; Mec-1, 1 nM, day 10) was 819 Fold Change. The “Rep 1 Live Cells [Fold Change]” value ([2]; Mec-1, 1 nM, day 12) was 3882.24 Fold Change, the “Rep 2 Live Cells [Fold Change]” value ([2]; Mec-1, 1 nM, day 12) was 4970 Fold Change and the “Rep 1 Live Cells [Fold Change]” value ([2]; Mec-1, 10 nM, day 0) was 1 Fold Change. The “Rep 2 Live Cells [Fold Change]” value ([2]; Mec-1, 10 nM, day 0) was 1 Fold Change, the “Rep 1 Live Cells [Fold Change]” value ([2]; Mec-1, 10 nM, day 3) was 7.233 Fold Change and the “Rep 2 Live Cells [Fold Change]” value ([2]; Mec-1, 10 nM, day 3) was 10.3 Fold Change. For the same molecule, the “Rep 1 Live Cells [Fold Change]” value ([2]; Mec-1, 10 nM, day 6) was 40.9889 Fold Change, the “Rep 2 Live Cells [Fold Change]” value ([2]; Mec-1, 10 nM, day 6) was 85.8 Fold Change and the “Rep 1 Live Cells [Fold Change]” value ([2]; Mec-1, 10 nM, day 10) was 534.674 Fold Change. The “Rep 2 Live Cells [Fold Change]” value ([2]; Mec-1, 10 nM, day 10) was 1290 Fold Change, the “Rep 1 Live Cells [Fold Change]” value ([2]; Mec-1, 10 nM, day 12) was 1546.22 Fold Change and the “Rep 2 Live Cells [Fold Change]” value ([2]; Mec-1, 10 nM, day 12) was 3960 Fold Change. For the same molecule, the “Rep 1 Live Cells [Fold Change]” value ([2]; Mec-1, 100 nM, day 0) was 1 Fold Change, the “Rep 2 Live Cells [Fold Change]” value ([2]; Mec-1, 100 nM, day 0) was 1 Fold Change and the “Rep 3 Live Cells [Fold Change]” value ([2]; Mec-1, 100 nM, day 0) was 1 Fold Change. For the same molecule, the “Rep 4 Live Cells [Fold Change]” value ([2]; Mec-1, 100 nM, day 0) was 1 Fold Change, the “Rep 1 Live Cells [Fold Change]” value ([2]; Mec-1, 100 nM, day 3) was 10.3 Fold Change and the “Rep 2 Live Cells [Fold Change]” value ([2]; Mec-1, 100 nM, day 3) was 8.66 Fold Change. For the same molecule, the “Rep 3 Live Cells [Fold Change]” value ([2]; Mec-1, 100 nM, day 3) was 6.583 Fold Change, the “Rep 4 Live Cells [Fold Change]” value ([2]; Mec-1, 100 nM, day 3) was 8.22 Fold Change and the “Rep 1 Live Cells [Fold Change]” value ([2]; Mec-1, 100 nM, day 6) was 88.992 Fold Change. The “Rep 2 Live Cells [Fold Change]” value ([2]; Mec-1, 100 nM, day 6) was 55.1353 Fold Change, the “Rep 3 Live Cells [Fold Change]” value ([2]; Mec-1, 100 nM, day 6) was 56.8361 Fold Change and the “Rep 4 Live Cells [Fold Change]” value ([2]; Mec-1, 100 nM, day 6) was 60.1 Fold Change. The “Rep 2 Live Cells [Fold Change]” value ([2]; Mec-1, 100 nM, day 10) was 518.272 Fold Change, the “Rep 3 Live Cells [Fold Change]” value ([2]; Mec-1, 100 nM, day 10) was 601.592 Fold Change and the “Rep 4 Live Cells [Fold Change]” value ([2]; Mec-1, 100 nM, day 10) was 484 Fold Change. For the same molecule, the “Rep 1 Live Cells [Fold Change]” value ([2]; Mec-1, 100 nM, day 12) was 615.119 Fold Change, the “Rep 2 Live Cells [Fold Change]” value ([2]; Mec-1, 100 nM, day 12) was 1560 Fold Change and the “Rep 3 Live Cells [Fold Change]” value ([2]; Mec-1, 100 nM, day 12) was 1676.06 Fold Change. For the same molecule, the “Rep 4 Live Cells [Fold Change]” value ([2]; Mec-1, 100 nM, day 12) was 3230 Fold Change, the “Rep 1 Live Cells [Fold Change]” value ([2]; Mec-1, 1 µM, day 0) was 1 Fold Change and the “Rep 2 Live Cells [Fold Change]” value ([2]; Mec-1, 1 µM, day 0) was 1 Fold Change. The “Rep 3 Live Cells [Fold Change]” value ([2]; Mec-1, 1 µM, day 0) was 1 Fold Change, the “Rep 4 Live Cells [Fold Change]” value ([2]; Mec-1, 1 µM, day 0) was 1 Fold Change and the “Rep 1 Live Cells [Fold Change]” value ([2]; Mec-1, 1 µM, day 3) was 7.867 Fold Change. The “Rep 2 Live Cells [Fold Change]” value ([2]; Mec-1, 1 µM, day 3) was 5.46 Fold Change, the “Rep 3 Live Cells [Fold Change]” value ([2]; Mec-1, 1 µM, day 3) was 6.18 Fold Change and the “Rep 4 Live Cells [Fold Change]” value ([2]; Mec-1, 1 µM, day 3) was 8.87 Fold Change. The “Rep 1 Live Cells [Fold Change]” value ([2]; Mec-1, 1 µM, day 6) was 54.0178 Fold Change, the “Rep 2 Live Cells [Fold Change]” value ([2]; Mec-1, 1 µM, day 6) was 38.4384 Fold Change and the “Rep 3 Live Cells [Fold Change]” value ([2]; Mec-1, 1 µM, day 6) was 49.852 Fold Change. For the same molecule, the “Rep 4 Live Cells [Fold Change]” value ([2]; Mec-1, 1 µM, day 6) was 61.2 Fold Change, the “Rep 1 Live Cells [Fold Change]” value ([2]; Mec-1, 1 µM, day 10) was 514.04 Fold Change and the “Rep 2 Live Cells [Fold Change]” value ([2]; Mec-1, 1 µM, day 10) was 244.725 Fold Change. For the same molecule, the “Rep 3 Live Cells [Fold Change]” value ([2]; Mec-1, 1 µM, day 10) was 462.377 Fold Change, the “Rep 4 Live Cells [Fold Change]” value ([2]; Mec-1, 1 µM, day 10) was 387 Fold Change and the “Rep 1 Live Cells [Fold Change]” value ([2]; Mec-1, 1 µM, day 12) was 1825.77 Fold Change. The “Rep 2 Live Cells [Fold Change]” value ([2]; Mec-1, 1 µM, day 12) was 748.774 Fold Change, the “Rep 3 Live Cells [Fold Change]” value ([2]; Mec-1, 1 µM, day 12) was 1841.8 Fold Change and the “Rep 4 Live Cells [Fold Change]” value ([2]; Mec-1, 1 µM, day 12) was 1610 Fold Change. The “effect on growth potential (cell growth)” value ([2]; Mec-1, continuous exposure over 12 days) was “No changes in growth potential”, the “Week 1 CD19+/B220dim” value ([3]; Figure 7F, per mouse, week 1, in % (unit assumed)) was 11.48 and 18.62 and 27.54 and 11.19 and 10.12 and 10.58 and 15.76 and 16.07 and 10.74 and the “Week 2 CD19+/B220dim” value ([3]; Figure 7F, per mouse, week 2, in % (unit assumed)) was 15.67 and 34.32 and 54.88 and 26.83 and 24.62 and 12.62 and 27.46 and 30.9 and 21.08. The “Week 3 CD19+/B220dim” value ([3]; Figure 7F, per mouse, week 3, in % (unit assumed)) was 36.29 and 68.26 and 63.64 and 49.66 and 47.13 and 26.83 and 51.14 and 52.04 and 25.17, the “Week 4 CD19+/B220dim” value ([3]; Figure 7F, per mouse, week 4, in % (unit assumed)) was 56.34 and 75.81 and 60.54 and 71.56 and 63.33 and 48.69 and 69.46 and 71.25 and 53.76 and the “Week 5 CD19+/B220dim” value ([3]; Figure 7F, per mouse, week 5) was 50.26 and 79.76 and 83.28 and 82.04 and 59.53 and 59.67 and 70.88 and 81.41 and 79.52. The “Week 6 CD19+/B220dim” value ([3]; Figure 7F, per mouse, week 6, in % (unit assumed)) was 79.53 and 74.33 and 84.12 and 75.35 and 79.18 and 56.6 and 82.56 and 74.54 and 89.39, the “Week 7 CD19+/B220dim” value ([3]; Figure 7F, per mouse, week 7, in % (unit assumed)) was 80.7 and 87.13 and 89.6 and 89.4 and 86.59 and 66 and 85.98 and 83.54 and 93.2 and the “Week 8 CD19+/B220dim” value ([3]; Figure 7F, per mouse, week 8) was 84.94 and 92.1 and 90.67 and 85.36 and 88.33 and 44.29 and 85.8 and 89.46. For the same molecule, the “Week 9 CD19+/B220dim” value ([3]; Figure 7F, per mouse, week 9) was 85.98 and 79.2 and 88.88, the “Week 10 CD19+/B220dim” value ([3]; Figure 7F, per mouse, week 10, in % (unit assumed)) was 88.79 and the Endpoint ([3]; Figure 7G, survival endpoint indicator, per mouse) was 1. For the same molecule, the Days since enrollment ([3]; Figure 7G, survival, per mouse) was 64 days and 50 days and 52 days and 51 days and 58 days and 45 days, the Spleen weight ([3]; Figure 7H, per mouse) was 1.7 g and 2.27 g and 2.35 g and 2.58 g and 2.18 g and 1.84 g and 2.11 g and 1.38 g and the Median survival post-enrollment ([3]; PRT382 10 mg/kg, EPZ015666 50 mg/kg, oral gavage 4 contiguous days per week) was 51 days. The Spleen volume ([3]; individual mice, Supplemental Figure 6F) was 1489.45 mm3 and 4749.69 mm3 and 2852.93 mm3 and 3279.99 mm3 and 2090.66 mm3 and 1726.14 mm3 and 2169.7 mm3 and 1234.53 mm3.
